Experiment [1] concerns the target T1, chimera RXFP1-2 (extracellular domain of RXFP1, transmembrane domain of RXFP2) (Homo sapiens, UniProt Q8WXD0).
T1 construct: other: RXFP1-2 chimera; Emax; normalized to 2 μM forskolin cAMP response as 100% activity; fused on or other part: FLAG tag; The RXFP1 extracellular domain is the N-terminal part of the chimera and the RXFP2 transmembrane domain is the C-terminal part; Q9HBX9 (Relaxin receptor 1)
Description: HTRF cAMP assay in HEK293T cells transiently transfected with chimera RXFP1-2. The class given is cell-based. The settings on record: RXFP1-2 chimera. An excerpt: (§1) To further investigate the involvement of the RXFP2 extracellular and transmembrane domains in agonist activation of the receptor, two complementary chimeras were created using the RXFP1 receptor, which is not activated by the agonists of formula (I), to transiently transfect HEK293T cells and measured changes in cAMP induction using the HTRF assay.
(§2) Chimeric receptors were generated by IN-FUSION™ (Takara Bio USA, Inc., San Jose, CA) mutagenesis using full-length human RXFP1 and RXFP2 receptor constructs. Polymerase chain reaction (PCR) was performed using PfuTurbo high-fidelity DNA polymerase (Agilent Technologies, Santa Clara, CA) and overlapping primers with at least 15 bp sequence homology within the fusion site. PCR products were digested with Dpnl restricton enzyme at 37° C. overnight, run on a 0.8% agarose gel and purified using the GENEJET™ Gel extraction kit (Thermo Scientific, Waltham, MA). The purified DNA fragments were then ligated into the BamHI and XhoI pre-digested pcDNA3.1™/Zeo(+) AmpR mammalian expression vector using the In-Fusion HD enzyme premix (Clontech, Mountain View, CA) at 50° C. for 15 minutes, and the resulting product was used to transform Stellar competent cells (Takara Bio USA, Inc., San Jose, CA). The clones were fully sequenced to confirm the correct fusion of both receptor fragments. Chimera RXFP2-1 contained the extracellular domain of RXFP2 and the transmembrane domain of RXFP1. Accordingly, chimera RXFP1-2 contained the extracellular domain of RXFP1 and the transmembrane domain of RXFP2.
(§3) HEK293T cells were seeded in 6-well flat-bottom clear plates at 0.5 million cells/well in 2 mL/well of growth medium (DMEM, 10% FBS, 1× Pen/Strep) and allowed to attach overnight at 37° C. and 5% CO2. The next morning, cells were transfected with 2 μg of plasmid (chimeric receptors, WT RXFP2, or WT RXFP1) and 6 μl of Lipofectamine2000 (Invitrogen, Waltham, MA) in a total volume of 200 μl/well OPTI-MEM™ I (Thermo Fisher, Waltham, MA) reduced serum medium and allowed to incubate an additional 24 hours. The next day, transfected cells were seeded in 96-well flat-bottom opaque plates at 30,000 cells/well in 60 μL/well of serum-free DMEM medium and allowed to attach overnight at 37° C. at 5% CO2. The next morning, cells were treated with 1 μL/well of compound (25 μM-0.25 nM), 2 μM forskolin, or DMSO vehicle. Cells were also treated with 4 μL of positive control INSL3 (100-0.01 nM), Relaxin2 (100-10 nM), or vehicle (serum-free DMEM+IBMX). Plates were incubated for 1 hour at 37° C. and 5% CO2, after which kit cAMP-d2 and anti-cAMP antibody were added as previously described. Cells were incubated for 1 hour at room temperature, and then the signal was read on a CLARIOstar plate reader (BMG Labtech, Germany).
A general note: TR-FRET usually uses a lanthanide donor and a delayed reading to cut background.

The subject of experiment [2] is chimera RXFP1-2 (extracellular domain of RXFP1, transmembrane domain of RXFP2). The experiment is described as above. It is filed as cell-based, human.
From the text: as §1, §2, §3

The Emax is the greatest response seen or fitted, relative to the assay's reference. Usually EC50 stands for the concentration needed to bring the measured effect to its halfway point.

T1 sequence (Q8WXD0 417-754 limits assumed, change not shown): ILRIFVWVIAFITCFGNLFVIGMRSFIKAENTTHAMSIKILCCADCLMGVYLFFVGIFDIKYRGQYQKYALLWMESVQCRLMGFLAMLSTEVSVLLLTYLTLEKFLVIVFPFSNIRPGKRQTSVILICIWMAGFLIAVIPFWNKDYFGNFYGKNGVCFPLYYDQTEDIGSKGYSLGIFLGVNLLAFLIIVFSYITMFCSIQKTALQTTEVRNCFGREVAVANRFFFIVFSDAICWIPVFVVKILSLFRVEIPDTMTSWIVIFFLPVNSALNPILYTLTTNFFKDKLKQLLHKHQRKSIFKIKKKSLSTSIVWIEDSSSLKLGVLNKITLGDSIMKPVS

In experiment [1] (HEK-293T, normalized to 2 μM forskolin cAMP response as 100% activity), `O=C1Nc2ccc(-c3cc(C(F)(F)F)cc(C(F)(F)F)c3)cc2C(=O)N2CCN(C(=O)COc3ccc(OC(F)(F)F)cc3I)C[C@@H]12` [Example 187, (S)-8-(3,5-bis(trifluoromethyl)phenyl)-2-(2-(2-iodo-4-(trifluoromethoxy)phenoxy)acetyl)-1,3,4,12a-tetrahydrobenzo[e]pyrazino[1,2-a][1,4]diazepine-6,12 (2H, 11H)-dione] came in with an Emax of 96.47 ± 0.43%. Besides, the half-maximal effective concentration (EC50) in experiment [1] (read-out: EC50 (μM or nM)) worked out at 0.016 ± 0.002 µM. Further, the “cAMP response of chimera RXFP1-2” value in experiment [2] is on record as “levels comparable to WT RXFP2”.

The record behind these values is patent US20250134907A1, “FUSED DIAZEPINES AS AGONISTS OF THE INSULIN-LIKE 3 (INSL3) PEPTIDE RECEPTOR RXFP2 AND METHODS OF USE THEREOF” (The United States of America,as represented by the …, priority 2022, published 2025).
